Experimental data taken from patent US20260297542A1, “HERBICIDE RESISTANT PLANTS” (SYNGENTA CROP PROTECTION AG, priority 2023, published 2026).
Residue numbers refer to the chain shown, from its start.

Experiments:
[1] = target: T1, AtPPO1 V365L G404A L479N (SEQ ID NO.136) (Arabidopsis thaliana, UniProt P55826, G404A/L479N/V365L); assay: fluorescent Protoporphyrinogen Oxidase assay, crude extract; format: biochemical; conditions: read-out: percentage inhibition
T1 construct: made in house; host or cells: E. coli BL21 (DE3) hemG, crude extract
T1 sequence (P55826 35-537 V365L/G404A/L479N): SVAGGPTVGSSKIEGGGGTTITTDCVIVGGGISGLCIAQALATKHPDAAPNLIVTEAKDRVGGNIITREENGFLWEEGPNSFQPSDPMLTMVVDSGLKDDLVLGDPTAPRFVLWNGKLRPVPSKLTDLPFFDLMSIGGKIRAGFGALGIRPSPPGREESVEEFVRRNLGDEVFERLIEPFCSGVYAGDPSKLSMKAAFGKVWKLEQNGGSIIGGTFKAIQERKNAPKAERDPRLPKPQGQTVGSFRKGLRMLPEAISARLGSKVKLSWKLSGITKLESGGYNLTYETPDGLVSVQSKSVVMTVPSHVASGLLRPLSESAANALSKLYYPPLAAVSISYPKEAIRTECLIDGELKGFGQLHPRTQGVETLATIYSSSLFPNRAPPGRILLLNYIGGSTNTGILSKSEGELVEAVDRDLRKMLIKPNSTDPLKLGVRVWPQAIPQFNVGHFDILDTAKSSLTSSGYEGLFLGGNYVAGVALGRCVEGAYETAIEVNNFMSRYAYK

[2] = target: T2, AtPPO1 S305L Y361T V365L T431R L479M (SEQ ID NO.130) (Arabidopsis thaliana, UniProt P55826, L479M/S305L/T431R/V365L/Y361T); assay: as above; format: biochemical; conditions: read-out: percentage inhibition
T2 construct: made in house; host or cells: E. coli BL21 (DE3) hemG, crude extract
T2 sequence (P55826 35-537 S305L/Y361T/V365L/T431R/L479M): T1 sequence (P55826 35-537 V365L/G404A/L479N) with S271L, Y327T, A370G, T397R, N445M

Compound CC(C)N(C)S(=O)(=O)NC(=O)c1cc(-n2c(=O)cc(C(F)(F)F)n(C)c2=O)c(F)cc1Cl [Herbicide E, saflufenacil] has an inhibition at 0.1 ppm [1] of 0%, an inhibition at 1 ppm [1] of 39% and an inhibition at 10 ppm [1] of 86%. For the same compound, the inhibition at 100 ppm [1] was 100%, the inhibition at 0.1 ppm [2] was 9% and the inhibition at 1 ppm [2] was 45%. The inhibition at 10 ppm [2] was 82% and the inhibition at 100 ppm [2] was 91%.

With C#CCN1C(=O)C(F)(F)Oc2cc(F)c(-n3c(=O)n(C)c(=S)n(C)c3=O)cc21 [Herbicide B, trifludimoxazin] the inhibition at 0.1 ppm [1] was 79%, the inhibition at 1 ppm [1] was 100% and the inhibition at 10 ppm [1] was 100%. It also gave an inhibition at 100 ppm [1] of 100%, an inhibition at 0.1 ppm [2] of 41% and an inhibition at 1 ppm [2] of 100%. It also gave an inhibition at 10 ppm [2] of 97% and an inhibition at 100 ppm [2] of 98%.

CCOC(=O)[C@]1(C)CC(c2cc(-n3c(=O)n(C)c(=S)n(C)c3=O)c(F)cc2Cl)=NO1 [Herbicide D, ethyl (5S)-3-[2-chloro-5-(3,5-dimethyl-2,6-dioxo-4-thioxo-1,3,5-triazinan-1-yl)-4-fluoro-phenyl]-5-methyl-4H-isoxazole-5-carboxylate] gave an inhibition at 0.1 ppm [1] of 4%, an inhibition at 1 ppm [1] of 75% and an inhibition at 10 ppm [1] of 99%. The inhibition at 100 ppm [1] was 100%, the inhibition at 0.1 ppm [2] was 12% and the inhibition at 1 ppm [2] was 42%. It also gave an inhibition at 10 ppm [2] of 89% and an inhibition at 100 ppm [2] of 92%.

Work on CCOC(=O)C1(C)CC(c2cc(-n3c(=O)cc(C(F)(F)F)n(C)c3=O)c(F)cc2Cl)=NO1 (stereo not drawn) [Herbicide C, 3-(2-chloro-4-fluoro-5-(3-methyl-2,6-dioxo-4-trifluoromethyl-3,6-dihydropyrimidin-1(2H)-yl)phenyl)-5-methyl-4,5-dihydroisoxazole-5-carboxylic acid ethyl ester] yielded an inhibition at 0.1 ppm [1] of 34%, an inhibition at 1 ppm [1] of 90% and an inhibition at 10 ppm [1] of 99%. The inhibition at 100 ppm [1] was 100%, the inhibition at 1 ppm [2] was 78% and the inhibition at 10 ppm [2] was 99%. The inhibition at 100 ppm [2] was 97%.

With CCOC(=O)COc1ncccc1Oc1cc(-n2c(=O)cc(C(F)(F)F)n(C)c2=O)c(F)cc1Cl [Herbicide A, epyrifenacil] the inhibition at 0.1 ppm [1] was 58%, the inhibition at 1 ppm [1] was 95% and the inhibition at 10 ppm [1] was 100%. For the same compound, the inhibition at 100 ppm [1] was 100%, the inhibition at 0.1 ppm [2] was 15% and the inhibition at 1 ppm [2] was 69%. It also gave an inhibition at 10 ppm [2] of 99% and an inhibition at 100 ppm [2] of 94%.
